Measured values taken from patent US20250100995A1, “CEREBLON BINDING COMPOUNDS, COMPOSITIONS THEREOF, AND METHODS OF TREATMENT THEREWITH” (CELGENE CORPORATION, priority 2021, published 2025).
Counter-ions that a name gives are not always drawn.

Target: T1, AR (Homo sapiens, UniProt P10275)
T1 construct: endogenous in cells; host or cells: VCaP cells
T1 sequence (P10275 1-920): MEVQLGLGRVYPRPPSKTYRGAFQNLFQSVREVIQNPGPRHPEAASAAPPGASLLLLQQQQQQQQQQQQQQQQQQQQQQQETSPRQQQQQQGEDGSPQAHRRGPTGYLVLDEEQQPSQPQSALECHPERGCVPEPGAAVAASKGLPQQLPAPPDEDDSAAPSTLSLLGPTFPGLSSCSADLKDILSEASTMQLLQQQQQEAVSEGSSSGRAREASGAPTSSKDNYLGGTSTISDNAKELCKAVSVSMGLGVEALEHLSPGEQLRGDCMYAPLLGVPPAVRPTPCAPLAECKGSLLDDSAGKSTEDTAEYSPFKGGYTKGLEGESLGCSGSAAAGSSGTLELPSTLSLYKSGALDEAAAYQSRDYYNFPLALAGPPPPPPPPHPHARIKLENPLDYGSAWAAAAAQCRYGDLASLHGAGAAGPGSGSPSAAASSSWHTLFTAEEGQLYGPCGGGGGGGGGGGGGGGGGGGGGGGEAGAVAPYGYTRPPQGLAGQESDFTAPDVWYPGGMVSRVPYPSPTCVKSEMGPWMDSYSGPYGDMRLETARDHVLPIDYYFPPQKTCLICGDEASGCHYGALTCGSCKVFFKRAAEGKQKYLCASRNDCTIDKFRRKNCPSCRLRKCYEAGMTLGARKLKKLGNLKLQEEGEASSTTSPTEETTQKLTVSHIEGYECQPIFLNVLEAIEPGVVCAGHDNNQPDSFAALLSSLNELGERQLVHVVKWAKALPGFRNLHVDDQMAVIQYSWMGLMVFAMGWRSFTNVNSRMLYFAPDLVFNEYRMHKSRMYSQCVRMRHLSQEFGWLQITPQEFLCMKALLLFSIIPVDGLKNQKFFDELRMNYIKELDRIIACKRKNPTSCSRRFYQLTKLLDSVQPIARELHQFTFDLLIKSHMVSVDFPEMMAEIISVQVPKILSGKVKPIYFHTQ
Experiment: VCAP AR Degradation Assay
Format: cell-based
Conditions: VCaP cells, 24 h, AR ELISA; for DC50: concentration of compound when AR level = 50% of DMSO control; for Y: lowest measured AR level normalized to DMSO control (AR degradation efficiency)
Description: VCAP AR Degradation Assay. Test compounds were pre-dispensed into a Corning CellBind 96-well clear bottom plate (Cat #3300) using an acoustic dispenser to make a 10-point concentration series at 1:3 dilution for each compound. The final top concentration of each compound was 5 μM. DMSO at a final concentration of 0.1% was used as a control. VCaP cells cultured in DMEM with 8% fetal bovine serum (FBS) were seeded at 50K cells per well in a 200 μL volume into the compound plate and incubated at 37° C. in a CO2 incubator for 24 h. The medium was carefully removed from the cells and the plate was placed on ice. One hundred μL of ice-cold 1× cell lysis buffer from Cell Signaling Technologies (Cat #9803) was added to each well of the cells and the plate was incubated at 4° C. on a shaker for 1 h. Fifteen μL of cell lysate was used for AR ELISA detection using a PathScan Total Sandwich AR ELISA kit (Cell Signaling Technology, Cat #12580). AR levels in compound-treated wells were normalized to that of DMSO control and expressed as percent of control (PoC) (y). A Four Parameter Logistic Model (Sigmoidal Dose-Response Model) was used to determine the compound's DC50, and EC50, using the following equation: […]
The lowest measured AR level normalized to DMSO control in response to compound treatment, termed Y value, was used to characterize the compound-mediated AR degradation efficiency.

| SMILES | DC50 [nM] | Y |
| --- | --- | --- |
| C[C@@H]1CN(CCO[C@H]2CC[C@H](N3C(=S)N(c4ccc(C#N)c(C(F)(F)F)c4)C(=O)C3(C)C)CC2)C[C@H](C)N1CCCOc1cc(C2CCC(=O)NC2=O)ccn1 (stereo partly drawn) [Cmpd 16, 4-(3-(trans-4-(2-((3R,5S)-4-(3-((4-(2,6-Dioxopiperidin-3-yl)pyridin-2-yl)oxy)propyl)-3,5-dimethylpiperazin-1-yl)ethoxy)cyclohexyl)-4,4-dimethyl-5-oxo-2-thioxoimidazolidin-1-yl)-2-(trifluoromethyl)benzonitrile hydrochloride] | 50 to 200 | *** (40%<Y<80%) |
| C[C@@H]1CN(CCCC[C@H]2CC[C@H](N3C(=S)N(c4ccc(C#N)c(C(F)(F)F)c4)C(=O)C3(C)C)CC2)C[C@H](C)N1CC(=O)Nc1cc(N2CCC(=O)NC2=O)ccn1 [Cmpd 17, 2-((2R,6S)-4-(4-((trans)-4-(3-(4-Cyano-3-(trifluoromethyl)phenyl)-5,5-dimethyl-4-oxo-2-thioxoimidazolidin-1-yl)cyclohexyl)butyl)-2,6-dimethylpiperazin-1-yl)-N-(4-(2,4-dioxotetrahydropyrimidin-1(2H)-yl)pyridin-2-yl)acetamide] | 5 to 50 | ** (20%<Y≤40%) |
| C[C@@H]1CN(CCCC[C@H]2CC[C@H](N3C(=S)N(c4ccc(C#N)c(C(F)(F)F)c4)C(=O)C3(C)C)CC2)C[C@H](C)N1CC(=O)Nc1ccc(N2CCC(=O)NC2=O)cn1 [Cmpd 18, 2-((2R,6S)-4-(4-((trans)-4-(3-(4-Cyano-3-(trifluoromethyl)phenyl)-5,5-dimethyl-4-oxo-2-thioxoimidazolidin-1-yl)cyclohexyl)butyl)-2,6-dimethylpiperazin-1-yl)-N-(5-(2,4-dioxotetrahydropyrimidin-1(2H)-yl)pyridin-2-yl)acetamide] | 5 to 50 | ** (20%<Y≤40%) |
| C[C@@H]1CN(CCCC[C@H]2CC[C@H](N3C(=S)N(c4ccc(C#N)c(C(F)(F)F)c4)C(=O)C3(C)C)CC2)C[C@H](C)N1CC(=O)Nc1ccc(C2CCC(=O)NC2=O)cn1 (stereo partly drawn) [Cmpd 19, 2-((2R,6S)-4-(4-((trans)-4-(3-(4-Cyano-3-(trifluoromethyl)phenyl)-5,5-dimethyl-4-oxo-2-thioxoimidazolidin-1-yl)cyclohexyl)butyl)-2,6-dimethylpiperazin-1-yl)-N-(5-(2,6-dioxopiperidin-3-yl)pyridin-2-yl)acetamide] | ≤ 5 | * (0<Y≤20%) |
| CC1(C)C(=O)N(c2ccc(C#N)c(C(F)(F)F)c2)C(=S)N1[C@H]1CC[C@H](CCCN2CCN(CC(=O)Nc3cc(C4CCC(=O)NC4=O)ccn3)[C@@H](C(F)(F)F)C2)CC1 (stereo partly drawn) [Cmpd 20, 2-((R)-4-(3-((trans)-4-(3-(4-Cyano-3-(trifluoromethyl)phenyl)-5,5-dimethyl-4-oxo-2-thioxoimidazolidin-1-yl)cyclohexyl)propyl)-2-(trifluoromethyl)piperazin-1-yl)-N-(4-(2,6-dioxopiperidin-3-yl)pyridin-2-yl)acetamide] | 5 to 50 | ** (20%<Y≤40%) |
| CC1(C)C(=O)N(c2ccc(C#N)c(C(F)(F)F)c2)C(=S)N1[C@H]1CC[C@H](OCCN2CCN(CC(=O)Nc3cc(C4CCC(=O)NC4=O)ccn3)[C@@H](C(F)(F)F)C2)CC1 (stereo partly drawn) [Cmpd 21, 2-((R)-4-(2-(((trans)-4-(3-(4-Cyano-3-(trifluoromethyl)phenyl)-5,5-dimethyl-4-oxo-2-thioxoimidazolidin-1-yl)cyclohexyl)oxy)ethyl)-2-(trifluoromethyl)piperazin-1-yl)-N-(4-(2,6-dioxopiperidin-3-yl)pyridin-2-yl)acetamide] | 5 to 50 | * (0<Y≤20%) |
| CC1(C)C(=O)N(c2cnc(C#N)c(C(F)(F)F)c2)C(=S)N1[C@H]1CC[C@H](OCCN2CCN(CC(=O)Nc3cc(C4CCC(=O)NC4=O)ccn3)[C@@H](C(F)(F)F)C2)CC1 (stereo partly drawn) [Cmpd 22, 2-((R)-4-(2-(((trans)-4-(3-(6-Cyano-5-(trifluoromethyl)pyridin-3-yl)-5,5-dimethyl-4-oxo-2-thioxoimidazolidin-1-yl)cyclohexyl)oxy)ethyl)-2-(trifluoromethyl)piperazin-1-yl)-N-(4-(2,6-dioxopiperidin-3-yl)pyridin-2-yl)acetamide] | ≤ 5 | * (0<Y≤20%) |
| CC1(C)C(=O)N(c2cnc(C#N)c(C(F)(F)F)c2)C(=S)N1[C@H]1CC[C@H](CCCN2CCN(CC(=O)Nc3cc(C4CCC(=O)NC4=O)ccn3)[C@@H](C(F)(F)F)C2)CC1 (stereo partly drawn) [Cmpd 23, 2-((R)-4-(3-((trans)-4-(3-(6-Cyano-5-(trifluoromethyl)pyridin-3-yl)-5,5-dimethyl-4-oxo-2-thioxoimidazolidin-1-yl)cyclohexyl)propyl)-2-(trifluoromethyl)piperazin-1-yl)-N-(4-(2,6-dioxopiperidin-3-yl)pyridin-2-yl)acetamide] | 5 to 50 | * (0<Y≤20%) |
| CC1(C)C(=O)N(c2ccc(C#N)c(C(F)(F)F)c2)C(=S)N1[C@H]1CC[C@H](OCCCN2CCN(CC(=O)Nc3cc(C4CCC(=O)NC4=O)ccn3)[C@@H](C(F)(F)F)C2)CC1 (stereo partly drawn) [Cmpd 24, 2-((R)-4-(3-(((trans)-4-(3-(4-Cyano-3-(trifluoromethyl)phenyl)-5,5-dimethyl-4-oxo-2-thioxoimidazolidin-1-yl)cyclohexyl)oxy)propyl)-2-(trifluoromethyl)piperazin-1-yl)-N-(4-(2,6-dioxopiperidin-3-yl)pyridin-2-yl)acetamide] | ≤ 5 | * (0<Y≤20%) |
| CC1(C)C(=O)N(c2cnc(C#N)c(C(F)(F)F)c2)C(=S)N1[C@H]1CC[C@H](OCCCN2CCN(CC(=O)Nc3cc(C4CCC(=O)NC4=O)ccn3)[C@@H](C(F)(F)F)C2)CC1 (stereo partly drawn) [Cmpd 25, 2-((R)-4-(3-(((trans)-4-(3-(6-Cyano-5-(trifluoromethyl)pyridin-3-yl)-5,5-dimethyl-4-oxo-2-thioxoimidazolidin-1-yl)cyclohexyl)oxy)propyl)-2-(trifluoromethyl)piperazin-1-yl)-N-(4-(2,6-dioxopiperidin-3-yl)pyridin-2-yl)acetamide] | ≤ 5 | * (0<Y≤20%) |
| C[C@@H]1C[C@H](OCCO[C@H]2CC[C@H](N3C(=S)N(c4cnc(C#N)c(C(F)(F)F)c4)C(=O)C3(C)C)CC2)C[C@H](C)N1CC(=O)Nc1cc(C2CCC(=O)NC2=O)ccn1 (stereo partly drawn) [Cmpd 26, 2-((2R,4r,6S)-4-(2-(((trans)-4-(3-(6-Cyano-5-(trifluoromethyl)pyridin-3-yl)-5,5-dimethyl-4-oxo-2-thioxoimidazolidin-1-yl)cyclohexyl)oxy)ethoxy)-2,6-dimethylpiperidin-1-yl)-N-(4-(2,6-dioxopiperidin-3-yl)pyridin-2-yl)acetamide] | ≤ 5 | ** (20%<Y≤40%) |
| C[C@@H]1C[C@H](OCC[C@H]2CC[C@H](N3C(=S)N(c4ccc(C#N)c(C(F)(F)F)c4)C(=O)C3(C)C)CC2)C[C@H](C)N1CC(=O)Nc1cc(C2CCC(=O)NC2=O)ccn1 (stereo partly drawn) [Cmpd 27, 2-((2R,4r,6S)-4-(2-((trans)-4-(3-(4-Cyano-3-(trifluoromethyl)phenyl)-5,5-dimethyl-4-oxo-2-thioxoimidazolidin-1-yl)cyclohexyl)ethoxy)-2,6-dimethylpiperidin-1-yl)-N-(4-(2,6-dioxopiperidin-3-yl)pyridin-2-yl)acetamide] | 5 to 50 | ** (20%<Y≤40%) |
